This note sets out measurements from ChEMBL document CHEMBL6177918, “Generation and capture of naphthoquinonynes: a new frontier in the development of trypanocidal quinones via aryne chemistry” (RSC Med Chem, 2025).

pIC50: −log10 of the molar value. Some results are limits rather than exact numbers.

In series [1] the test system is Trypanosoma cruzi. Briefly: Trypanocidal activity against Trypanosoma cruzi trypomastigotes incubated for 24 hrs. The format is functional, organism-based.
The test system of series [2] is Trypanosoma cruzi. The series is described as follows: Trypanocidal activity against bloodstream Trypanosoma cruzi trypomastigotes incubated for 24 hrs by light microscopy. It counts as functional, organism-based.
Series [3] in a line: Stability of compound. The format is physicochemical.
Series [4] can be described thus: Solubility of compound. The format is physicochemical.

`O=C1C=CC(=O)c2c([Se]c3ccccc3)cccc21`: the pIC50 in the series on Trypanosoma cruzi [1] was 4.84. For the compound `O=C1C=CC(=O)c2cc(-c3ccc(-c4ccccc4)nc3)c(O)cc21`, the pIC50 in the series with Trypanosoma cruzi [2] is 4.98. The compound `O=C1C=CC(=O)c2cc(-n3cccn3)ccc21` had a pIC50 in the series with Trypanosoma cruzi [2] of 4.13. For `CC(C)=C1C2C=CC1c1cc3c(cc12)C(=O)C=CC3=O`, in the series with Trypanosoma cruzi [2], the pIC50 is less than 3.10.

Compound `CCC12C=CC(O1)c1cc3c(cc12)C(=O)C=CC3=O` (stereo not drawn) gave a negative logarithm of the IC50 (pIC50) in the series with Trypanosoma cruzi [2] of 4.31.

In the series with Trypanosoma cruzi [2], `O=C1C=CC(=O)c2cc(-c3cccc(-c4ccccc4)n3)c(O)cc21` showed a negative-log IC50 (pIC50) of 4.52.

Turning to `O=C1C=CC(=O)c2cc(OCCCCOc3ccccc3)ccc21`, the pIC50 with Trypanosoma cruzi [2] was 3.44. In the series on Trypanosoma cruzi [2], `O=C1C=CC(=O)c2cc(Nc3ccccc3)ccc21` showed a negative-log IC50 (pIC50) of 4.41.

As to `Cc1ccc(Nc2ccc3c(c2)C(=O)C=CC3=O)cc1`, the negative logarithm of the IC50 (pIC50) with Trypanosoma cruzi [2] is 3.86. `CC(=O)C12C=CC(O1)c1cc3c(cc12)C(=O)C=CC3=O` (stereo not drawn) gave a pIC50 with Trypanosoma cruzi [2] of 4.19.

In turn, `CN(c1ccccc1)c1ccc2c(c1)C(=O)C=CC2=O` showed a pIC50 in the series on Trypanosoma cruzi [2] of 4.53. In turn, `C=CCN(CC=C)c1ccc2c(c1)C(=O)C=CC2=O` showed a pIC50 with Trypanosoma cruzi [2] of 3.96. Consider `CC(C)N(c1ccc2c(c1)C(=O)C=CC2=O)C(C)C`, for which the pIC50 with Trypanosoma cruzi [2] is 4.74. As for `O=C1C=CC(=O)c2cc3c(cc21)C1C=CC3O1`, in the series with Trypanosoma cruzi [2], the pIC50 was 5.00. Take `O=C1C=CC(=O)c2cc(N(C3CCCCC3)C3CCCCC3)ccc21`: the negative-log IC50 (pIC50) with Trypanosoma cruzi [2] is 4.27. The compound `O=C1C=CC(=O)c2c(O)cccc21` [JUGLONE] had a pIC50 with Trypanosoma cruzi [1] of 3.98. `O=C1C=CC(=O)c2c1cccc2-n1cc(-c2ccccc2)nn1` showed a negative-log IC50 (pIC50) in the series on Trypanosoma cruzi [1] of 4.06. For the compound `C[Si](C)(C)c1cc2c(cc1OS(=O)(=O)C(F)(F)C(F)(F)C(F)(F)C(F)(F)F)C(=O)C=CC2=O`, in series [3], the Stability result is listed as “Unstable”. Regarding `CC12C=CC(C)(O1)c1cc3c(cc12)C(=O)C=CC3=O`, the pIC50 in the series with Trypanosoma cruzi [2] is 4.40.

The compound `O=C1C=CC(=O)c2cc(N(c3ccccc3)c3ccccc3)ccc21` showed a negative logarithm of the IC50 (pIC50) in the series with Trypanosoma cruzi [2] of 3.87. In turn, `CCN(CC)c1ccc2c(c1)C(=O)C=CC2=O` gave a negative-log IC50 (pIC50) in the series with Trypanosoma cruzi [2] of 4.02.

Turning to `O=C1C=CC(=O)c2cc(-c3cccnc3)c(O)cc21`, the solubility entry in series [4] was “Insoluble”. Regarding `CCN(CC)C(=O)Oc1ccc2c(OC)ccc(OC)c2c1`, the pIC50 in the series on Trypanosoma cruzi [2] was less than 3.10. Turning to `CCOC(=O)/C=C/c1cccc2c1C(=O)C=CC2=O`, the pIC50 with Trypanosoma cruzi [1] is 4.04. `COCC12C=CC(O1)c1cc3c(cc12)C(=O)C=CC3=O` (stereo not drawn) showed a negative-log IC50 (pIC50) in the series with Trypanosoma cruzi [2] of 4.24. As to `Cc1ccc(-c2cc3c(cc2O)C(=O)C=CC3=O)cn1`, the pIC50 in the series on Trypanosoma cruzi [2] is 4.62. Consider `COc1ccc(OC)c2ccccc12`, for which, in the series with Trypanosoma cruzi [2], the negative-log IC50 (pIC50) was less than 3.30. `O=C1C=CC(=O)c2cc(Nc3cccc4ccccc34)ccc21` gave a negative-log IC50 (pIC50) with Trypanosoma cruzi [2] of 3.73.

Regarding `CC(=O)OCC12C=CC(O1)c1cc3c(cc12)C(=O)C=CC3=O` (stereo not drawn), the pIC50 in the series with Trypanosoma cruzi [2] is 4.56.

Take `O=C(Cn1ccnc1[N+](=O)[O-])NCc1ccccc1` [BENZNIDAZOLE]: the negative logarithm of the IC50 (pIC50) with Trypanosoma cruzi [2] was 3.97; in the series on Trypanosoma cruzi [1] it was 5.17. On to `COc1ccc(OC)c2cc([Si](C)(C)C)c(OS(=O)(=O)C(F)(F)C(F)(F)C(F)(F)C(F)(F)F)cc12`, for which the solubility result in series [4] is recorded as “Insoluble”. In turn, `O=C1C=CC(=O)c2cc(-c3cnc4ccccc4c3)c(O)cc21` gave a pIC50 in the series on Trypanosoma cruzi [2] of 4.33. With `Cc1ccncc1-c1cc2c(cc1O)C(=O)C=CC2=O`, the pIC50 in the series with Trypanosoma cruzi [2] was 3.74. With `COc1ccc(OC)c2cc(O)ccc12`, the pIC50 in the series with Trypanosoma cruzi [2] was 3.42. Turning to `COc1ccc(OC)c2cc([Si](C)(C)C)c(O)cc12`, the pIC50 in the series on Trypanosoma cruzi [2] is 4.16. The compound `N#Cc1ccc(Nc2ccc3c(c2)C(=O)C=CC3=O)cc1` gave a negative logarithm of the IC50 (pIC50) with Trypanosoma cruzi [2] of 4.02. Regarding `O=C1C=CC(=O)c2cc(N(Cc3ccccc3)Cc3ccccc3)ccc21`, the pIC50 in the series on Trypanosoma cruzi [2] was less than 3.40.

As usually defined, the pIC50 is the negative decadic logarithm of the IC50, by convention in mol/L.
